For 12 compounds, IC50 results are on record in patent US20240300948A1, “Heterocyclic Compounds As Kinase Inhibitors” (Incyte Corporation, priority 2023, published 2024).

A value given as a limit tells only on which side of the number the result lay.

A word on the IC50: it is the point on the concentration scale where inhibition reaches its midpoint.

For experiment [1], the target named is T1, pseudo-kinase domain (JH2, amino-acids 536-812 with 3 surface mutations W659A, W777A, F794H) of human Wild Type JAK2 (Homo sapiens, UniProt O60674, F794H/W659A/W777A).
T1 construct: pseudo-kinase domain (JH2, amino-acids 536-812 with 3 surface mutations W659A, W777A, F794H); His (C); Avi (biotinylated) (C); purchased BPS Bioscience 79463; host or cells: baculovirus expression system
T1 sequence (O60674 536-812 W659A/W777A/F794H): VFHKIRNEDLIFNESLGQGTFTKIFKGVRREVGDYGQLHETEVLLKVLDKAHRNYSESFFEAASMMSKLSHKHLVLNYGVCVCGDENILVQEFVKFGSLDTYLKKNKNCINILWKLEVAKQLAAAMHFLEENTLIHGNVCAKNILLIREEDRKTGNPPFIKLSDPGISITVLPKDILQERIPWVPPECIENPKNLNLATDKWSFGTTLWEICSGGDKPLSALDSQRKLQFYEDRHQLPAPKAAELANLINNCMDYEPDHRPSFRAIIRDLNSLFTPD
Nature of the experiment: JAK2 LanthaScreen JH2-WT binding assay. As to conditions: 50 nM tracer, 1 hour at 25° C., read-out: JH2 BIND WT IC50. How it is done:
Example B. JAK2 LanthaScreen JH2-WT Binding Assay
(§1) JAK2 JH2-WT binding assay utilizes pseudo-kinase domain (JH2, amino-acids 536-812 with 3 surface mutations W659A, W777A, F794H) of human Wild Type JAK2 expressed as C-terminal His-Avi-tagged, biotinylated protein in a baculovirus expression system (BPS Bioscience, Catalog #79463). The assay was conducted in black 384-well polystyrene plates in a final reaction volume of 20 μL. JAK2 JH2-WT (0.145 nM) was incubated with compounds (100 nL serially diluted in DMSO) in the presence of 50 nM Fluorescent JAK2-JH2 Tracer (MedChem Express Catalog #HY-102055) and 0.25 nM Streptavidin-Tb cryptate (Cisbio Part #610SATLB) in assay buffer (50 mM Tris, pH=7.5, 10 mM MgCl2, 0.01% Brij-35, 0.1% BSA, 1 mM EGTA, 5% Glycerol and 5 mM DTT). Non-specific binding was accessed in the presence of 2 mM ATP. After incubation for 1 hour at 25° C., LanthaScreen signals were read on a PHERAstar FS plate reader (BMG LABTECH). Data was analyzed with IDBS XLfit and GraphPad Prism 5.0 software using a four parameter dose response curve to determine IC50 for each compound.
(In general: Time-resolved FRET reads energy transfer from a long-lived donor to a nearby acceptor.)

Experiment [2] concerns the target T2, catalytic domain (JH1, amino acids 826-1132) of human JAK2 (Homo sapiens, UniProt O60674).
T2 construct: catalytic domain (JH1, amino acids 826-1132) of human JAK2; FLAG (N); purchased Carna Biosciences 08-445-20N; host or cells: baculovirus expression system
The experiment can be described thus: JAK2 LanthaScreen JH1 binding assay. As to conditions: 50 nM tracer, 2 hours at 25° C., read-out: JH1 BIND IC50. The protocol: Example A. JAK2 LanthaScreen […] Binding Assay
JAK2 JH1 binding assay utilizes catalytic domain (JH1, amino acids 826-1132) of human JAK2 expressed as N-terminal FLAG-tagged, biotinylated protein in a baculovirus expression system (Carna Biosciences, Product #08-445-20N). The assay was conducted in black 384-well polystyrene plates in a final reaction volume of 20 μL. JAK2 JH1 (1.5 nM) was incubated with compounds (100 nL serially diluted in DMSO) in the presence of 50 nM fluorescent JAK2-JH1 tracer and 0.5 nM Streptavidin-Tb cryptate (Cisbio Part #610SATLB) in assay buffer (50 mM Tris, pH=7.5, 10 mM MgCl2, 0.01% Brij-35, 0.1% BSA, 1 mM EGTA, 5% Glycerol and 5 mM DTT). Non-specific binding was accessed in the presence of 2 mM ATP. After incubation for 2 hours at 25° C., LanthaScreen signals were read on a PHERAstar FS plate reader (BMG LABTECH). Data was analyzed with IDBS XLfit and GraphPad Prism 5.0 software using a four parameter dose response curve to determine IC50 for each compound.

Experiment [3] concerns the target T3, pseudo-kinase domain (JH2, amino-acids 536-812 with 3 surface mutations W659A, W777A, F794H) of human V617F mutant JAK2 (Homo sapiens, UniProt O60674, F794H/V617F/W659A/W777A).
T3 construct: pseudo-kinase domain (JH2, amino-acids 536-812 with 3 surface mutations W659A, W777A, F794H); His (C); Avi (biotinylated) (C); purchased BPS Bioscience 79498; host or cells: baculovirus expression system
The experiment can be described thus: JAK2 LanthaScreen JH2-V617F binding assay. As to conditions: 50 nM tracer, 1 hour at 25° C., read-out: JH2 BIND V617F IC50. The protocol: Example C. JAK2 LanthaScreen JH2-V617F Binding Assay
as §1, with “JH2-V617F” for “JH2-WT”, “V617F mutant” for “Wild Type”, “#79498).” for “#79463).”, “JH2-V617F (0.26” for “JH2-WT (0.145”

T3 sequence (O60674 536-812 V617F/W659A/W777A/F794H): as the sequence (O60674 536-812 W659A/W777A/F794H) above, with V82F counted along it
T2 sequence (O60674 826-1132): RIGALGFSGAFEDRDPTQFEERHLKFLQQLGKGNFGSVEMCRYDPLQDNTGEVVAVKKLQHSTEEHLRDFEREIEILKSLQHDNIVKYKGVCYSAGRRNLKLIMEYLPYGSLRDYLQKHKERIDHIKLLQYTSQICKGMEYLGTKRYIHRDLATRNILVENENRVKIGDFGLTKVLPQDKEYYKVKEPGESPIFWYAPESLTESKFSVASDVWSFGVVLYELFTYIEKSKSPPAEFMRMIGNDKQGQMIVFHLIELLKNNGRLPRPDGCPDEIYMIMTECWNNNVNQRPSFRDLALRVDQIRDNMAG

For `COC(=O)N[C@]1(C)CC[C@H](N2C(=O)NCc3cnc4[nH]c(-c5cnn(C)c5)c(-c5ccc6c(cnn6C(C)C)c5)c4c32)CC1` [Example 13, Methyl ((1s,4s)-4-(9-(1-isopropyl-1H-indazol-5-yl)-8-(1-methyl-1H-pyrazol-4-yl)-2-oxo-2,3,4,7-tetrahydro-1H-pyrrolo[3′,2′:5,6]pyrido[4,3-d]pyrimidin-1-yl)-1-methylcyclohexyl)carbamate], the results for the IC50 in experiment [1], in experiment [2] and in experiment [3] were 10 to 100 nM, over 1000 nM and 10 to 100 nM, respectively.

Turning to `COC(=O)N1CCC(N2C(=O)NCc3cnc4[nH]c(-c5cnn(C)c5)c(-c5ccc6c(cnn6C(C)C)c5)c4c32)CC1` [Example 14, Methyl 4-(9-(1-isopropyl-1H-indazol-5-yl)-8-(1-methyl-1H-pyrazol-4-yl)-2-oxo-2,3,4,7-tetrahydro-1H-pyrrolo[3′,2′:5,6]pyrido[4,3-d]pyrimidin-1-yl)piperidine-1-carboxylate], the 50% inhibitory concentration (IC50) in experiment [1] was 10 to 100 nM; in experiment [2], over 1000 nM; in experiment [3], 10 to 100 nM.

Consider `COC(=O)N[C@H]1C[C@H](N2C(=O)NCc3cnc4[nH]c(-c5cc(C)nc(C)c5)c(-c5ccc6c(cnn6C(C)C)c5)c4c32)C1` [Example 35, Methyl ((1r,3r)-3-(8-(2,6-dimethylpyridin-4-yl)-9-(1-isopropyl-1H-indazol-5-yl)-2-oxo-2,3,4,7-tetrahydro-1H-pyrrolo[3′,2′:5,6]pyrido[4,3-d]pyrimidin-1-yl)cyclobutyl) carbamate], for which the half-maximal inhibitory concentration (IC50) was 10 to 100 nM in experiment [1], over 1000 nM in experiment [2] and 10 to 100 nM in experiment [3].

As to `CC(C)n1ncc2cc(-c3c(-c4cnn(C)c4)[nH]c4ncc5c(c34)N(C3CCC4(CC3)CN(C(=O)NCC(F)F)C4)C(=O)NC5)ccc21` [Example 19, N-(2,2-Difluoroethyl)-7-(9-(1-isopropyl-1H-indazol-5-yl)-8-(1-methyl-1H-pyrazol-4-yl)-2-oxo-2,3,4,7-tetrahydro-1H-pyrrolo[3′,2′:5,6]pyrido[4,3-d]pyrimidin-1-yl)-2-azaspiro[3.5] nonane-2-carboxamide], the half-inhibitory concentration (IC50) in experiment [1] lay within 10 to 100 nM; in experiment [2], 100 to 500 nM; in experiment [3], 10 to 100 nM.

As for `COC(=O)N[C@@H]1CC[C@@H](n2c(=O)nc(N)c3cnc4[nH]c(-c5cnn(C)c5)c(-c5ccc6c(cnn6C(C)C)c5)c4c32)C1` [Example 41, Methyl ((1R,3R)-3-(4-amino-9-(1-isopropyl-1H-indazol-5-yl)-8-(1-methyl-1H-pyrazol-4-yl)-2-oxo-2,7-dihydro-1H-pyrrolo[3′,2′:5,6]pyrido[4,3-d]pyrimidin-1-yl)cyclopentyl)carbamate], the concentration for half-maximal inhibition (IC50) in experiment [1] was at most 10 nM; in experiment [2], 500 to 1000 nM; in experiment [3], at most 10 nM.

Regarding `COC(=O)N[C@@H]1CC[C@@H](N2C(=O)NCc3cnc4[nH]c(-c5cnn(C)c5)c(-c5ccc6c(cnn6CCF)c5)c4c32)C1` [Example 25, Methyl ((1R,3R)-3-(9-(1-(2-fluoroethyl)-1H-indazol-5-yl)-8-(1-methyl-1H-pyrazol-4-yl)-2-oxo-2,3,4,7-tetrahydro-1H-pyrrolo[3′,2′:5,6]pyrido [4,3-d]pyrimidin-1-yl)cyclopentyl) carbamate], the values for the half-maximal inhibitory concentration (IC50) in experiment [1], in experiment [2] and in experiment [3] were at most 10 nM, 100 to 500 nM and 10 to 100 nM, respectively.

Turning to `CC(C)n1ncc2cc(-c3c(-c4cnn(C)c4)[nH]c4ncc5c(c34)N([C@@H]3CC[C@@H](NC(=O)C4CC4)C3)C(=O)NC5)ccc21` [Example 11, N-((1R,3R)-3-(9-(1-Isopropyl-1H-indazol-5-yl)-8-(1-methyl-1H-pyrazol-4-yl)-2-oxo-2,3,4,7-tetrahydro-1H-pyrrolo[3′,2′:5,6]pyrido[4,3-d]pyrimidin-1-yl)cyclopentyl) cyclopropanecarboxamide], the IC50 is 10 to 100 nM in experiment [1], over 1000 nM in experiment [2] and 10 to 100 nM in experiment [3].

As to `COC(=O)N1CC2(CCC(N3C(=O)NCc4cnc5[nH]c(-c6cnn(C)c6)c(-c6ccc7c(cnn7C(C)C)c6)c5c43)CC2)C1` [Example 18, Methyl 7-(9-(1-isopropyl-1H-indazol-5-yl)-8-(1-methyl-1H-pyrazol-4-yl)-2-oxo-2,3,4,7-tetrahydro-1H-pyrrolo[3′,2′:5,6]pyrido[4,3-d]pyrimidin-1-yl)-2-azaspiro[3.5] nonane-2-carboxylate], the half-inhibitory concentration (IC50) in experiment [1] was in the range of 10 to 100 nM; in experiment [2] it was 100 to 500 nM; in experiment [3], 10 to 100 nM.

Regarding `COC(=O)N[C@H]1C[C@H](N2C(=O)NCc3cnc4[nH]c(C5=CCN(C)CC5)c(-c5ccc6c(cnn6C(C)C)c5)c4c32)C1` [Example 34, Methyl ((1r,3r)-3-(9-(1-isopropyl-1H-indazol-5-yl)-8-(1-methyl-1,2,3,6-tetra hydropyridin-4-yl)-2-oxo-2,3,4,7-tetrahydro-1H-pyrrolo[3′,2′:5,6]pyrido[4,3-d]pyrimidin-1-yl)cyclobutyl) carbamate], the half-maximal inhibitory concentration (IC50) was 10 to 100 nM in experiment [1], over 1000 nM in experiment [2] and 10 to 100 nM in experiment [3].

Turning to `CC(C)n1ncc2cc(-c3c(-c4cnn(C)c4)[nH]c4ncc5c(c34)N([C@H]3C[C@@H](NC(=O)Cc4ccn(C)n4)C3)C(=O)NC5)ccc21` [Example 21, N-((1s,3s)-3-(9-(1-Isopropyl-1H-indazol-5-yl)-8-(1-methyl-1H-pyrazol-4-yl)-2-oxo-2,3,4,7-tetrahydro-1H-pyrrolo[3′,2′:5,6]pyrido[4,3-d]pyrimidin-1-yl)cyclobutyl)-2-(1-methyl-1H-pyrazol-3-yl)acetamide], the values for the half-inhibitory concentration (IC50) in experiment [1], in experiment [2] and in experiment [3] were 10 to 100 nM, 500 to 1000 nM and 10 to 100 nM, respectively.

On to `CC(C)n1ncc2cc(-c3c(-c4cnn(C)c4)[nH]c4ncc5c(c34)N([C@@H]3CC[C@@H](NS(C)(=O)=O)C3)C(=O)NC5)ccc21` [Example 10, N-((1R,3R)-3-(9-(1-Isopropyl-1H-indazol-5-yl)-8-(1-methyl-1H-pyrazol-4-yl)-2-oxo-2,3,4,7-tetrahydro-1H-pyrrolo[3′,2′:5,6]pyrido[4,3-d]pyrimidin-1-yl)cyclopentyl) methanesulfonamide], for which the half-inhibitory concentration (IC50) in experiment [1] was 10 to 100 nM; in experiment [2], over 1000 nM; in experiment [3] it was 100 to 500 nM.

Regarding `COC(=O)N[C@H]1C[C@H](N2C(=O)NCc3cnc4[nH]c(C5CC5)c(-c5ccc6c(cnn6C(C)C)c5)c4c32)C1` [Example 36, Methyl ((1r,3r)-3-(8-cyclopropyl-9-(1-isopropyl-1H-indazol-5-yl)-2-oxo-2,3,4,7-tetrahydro-1H-pyrrolo[3′,2′:5,6]pyrido [4,3-d]pyrimidin-1-yl)cyclobutyl) carbamate], the IC50 in experiment [1] was 10 to 100 nM; in experiment [2], over 1000 nM; in experiment [3] it was 10 to 100 nM.
